The numbers were not newly measured in patent US20130309199A1, “Novel Treatment of Multiple Sclerosis (MS)” (priority 2010, published 2013), which cites them from elsewhere.

Data set [1] concerns detrusor instability. The note with it: cited from earlier work.
Data set [2] has as its system active multiple sclerosis lesions. The conditions noted are these: gadolinium-enhanced MR images; cited from earlier work.

With `CC(C(=O)O)c1ccc(-c2ccccc2)c(F)c1` (racemic) [Flurbiprofen], the side effects occurred in data set [1] (compared with five on placebo, P less than 0.025) was 13 patients. Moreover, the tolerability result in data set [1] (in vivo) is “well tolerated by most patients”. Besides, the frequency entry in data set [1] (vs placebo, P less than 0.001) is on record as “significantly reduced”. The “detrusor-pressure rise during bladder filling” value in data set [1] (vs placebo, P less than 0.01) is “significantly reduced”. In addition, in data set [1] (vs placebo, P less than 0.025), the urge incontinence result was “significantly reduced” and the urgency result is “significantly reduced”.
For `CC(C)Cc1ccc(C(C)C(=O)O)cc1` (stereo not shown) [Ibuprofen], in data set [2], the “suppression of active multiple sclerosis lesions” value is “does not suppress”.
